Data reported in PMC5218480 (PLoS ONE, 2017).

Test system: MV-4-11 cells
Experiment: Gene expression microarray analysis (Affymetrix PrimeView) and GSEA
Format: cell-based, human
Parameters: RFU PODN (11730768_x_at) / Fold change /veh PODN (11730768_x_at) / RFU LINC00158 (11744669_a_at) / Fold change /veh LINC00158 (11744669_a_at) / RFU DUSP10 (11751237_a_at) / Fold change /veh DUSP10 (11751237_a_at) / RFU ID3 (11757404_x_at) / Fold change /veh ID3 (11757404_x_at) / RFU PLEKHG5 (11737974_s_at) / Fold change /veh PLEKHG5 (11737974_s_at) / RFU LRRC4B (11730491_at) / Fold change /veh LRRC4B (11730491_at) / RFU GIMAP4 (11747438_a_at) / Fold change /veh GIMAP4 (11747438_a_at) / RFU KRT8 (11758183_x_at) / Fold change /veh KRT8 (11758183_x_at) / RFU CNN1 (11734310_a_at) / Fold change /veh CNN1 (11734310_a_at) / RFU VPS37D (11726825_at) / Fold change /veh VPS37D (11726825_at) / RFU C10orf10 (11716522_x_at) / Fold change /veh C10orf10 (11716522_x_at) / RFU KIR2DL2 /// KIR2DL4 /// KIR2DL5A /// KIR2DL5B /// KIR2DS1 /// KIR2DS2 /// KIR2DS3 /// KIR2DS4 /// KIR3DL3 /// KIR3DL3 /// KIR3DS1 (11738374_at) / Fold change /veh KIR2DL2 /// KIR2DL4 /// KIR2DL5A /// KIR2DL5B /// KIR2DS1 /// KIR2DS2 /// KIR2DS3 /// KIR2DS4 /// KIR3DL3 /// KIR3DL3 /// KIR3DS1 (11738374_at) / RFU C1QL1 (11718748_at) / Fold change /veh C1QL1 (11718748_at) / RFU TMPRSS4 (11747572_a_at) / Fold change /veh TMPRSS4 (11747572_a_at) / RFU HAMP (11756126_x_at) / Fold change /veh HAMP (11756126_x_at) / RFU RNFT2 (11725882_a_at) / Fold change /veh RNFT2 (11725882_a_at) / RFU NR4A2 (11747474_a_at) / Fold change /veh NR4A2 (11747474_a_at) / RFU ABCC12 (11746883_a_at) / Fold change /veh ABCC12 (11746883_a_at) / RFU TMEM136 (11760407_x_at) / Fold change /veh TMEM136 (11760407_x_at) / RFU CLDN22 /// WWC2 (11732394_at) / Fold change /veh CLDN22 /// WWC2 (11732394_at) / RFU HLA-DPB1 (11760878_x_at) / Fold change /veh HLA-DPB1 (11760878_x_at) / RFU SPINT1 (11716480_a_at) / Fold change /veh SPINT1 (11716480_a_at) / RFU GAP43 (11754022_s_at) / Fold change /veh GAP43 (11754022_s_at) / RFU A4GNT (11735810_at) / Fold change /veh A4GNT (11735810_at) / RFU PRB3 (11715151_x_at) / Fold change /veh PRB3 (11715151_x_at) / RFU TUBB4B (11761932_at) / Fold change /veh TUBB4B (11761932_at) / RFU CAPN14 (11732068_a_at) / Fold change /veh CAPN14 (11732068_a_at) / RFU TMCC2 (11721928_a_at) / Fold change /veh TMCC2 (11721928_a_at) / RFU IRGQ (11745062_a_at) / Fold change /veh IRGQ (11745062_a_at) / RFU FAM174B (11720279_a_at) / Fold change /veh FAM174B (11720279_a_at) / RFU TMPRSS4 (11748680_a_at) / Fold change /veh TMPRSS4 (11748680_a_at) / RFU FAM212B (11763350_a_at) / Fold change /veh FAM212B (11763350_a_at) / RFU PLEKHG5 (11743358_a_at) / Fold change /veh PLEKHG5 (11743358_a_at) / RFU ZSCAN30 (11745921_a_at) / Fold change /veh ZSCAN30 (11745921_a_at) / RFU CMKLR1 (11741424_a_at) / Fold change /veh CMKLR1 (11741424_a_at) / RFU LOC101060620 /// MAPK8IP1 (11723275_at) / Fold change /veh LOC101060620 /// MAPK8IP1 (11723275_at) / RFU SPTSSB (11747773_x_at) / Fold change /veh SPTSSB (11747773_x_at) / RFU PRSS12 (11739890_at) / Fold change /veh PRSS12 (11739890_at) / RFU BIN1 (11741810_x_at) / Fold change /veh BIN1 (11741810_x_at) / RFU WNT11 (11732464_a_at) / Fold change /veh WNT11 (11732464_a_at) / RFU C10orf10 (11716521_a_at) / Fold change /veh C10orf10 (11716521_a_at) / RFU C5orf56 (11738089_at) / Fold change /veh C5orf56 (11738089_at) / RFU CYB561 (11721691_x_at) / Fold change /veh CYB561 (11721691_x_at) / RFU ANKRD19P (11752326_a_at) / Fold change /veh ANKRD19P (11752326_a_at) / RFU OR2T12 /// OR2T33 /// OR2T8 (11738714_s_at) / Fold change /veh OR2T12 /// OR2T33 /// OR2T8 (11738714_s_at) / RFU VCAN (11748164_a_at) / Fold change /veh VCAN (11748164_a_at) / RFU JSRP1 (11732532_at) / Fold change /veh JSRP1 (11732532_at) / RFU KRTAP10-11 (11738290_x_at) / Fold change /veh KRTAP10-11 (11738290_x_at) / RFU MYO3A (11730013_a_at) / Fold change /veh MYO3A (11730013_a_at) / RFU EBF3 (11725865_a_at) / Fold change /veh EBF3 (11725865_a_at) / RFU CAMK2N1 (11719241_x_at) / Fold change /veh CAMK2N1 (11719241_x_at) / RFU C5orf56 (11738088_a_at) / Fold change /veh C5orf56 (11738088_a_at) / RFU OLFML3 (11715873_a_at) / Fold change /veh OLFML3 (11715873_a_at) / RFU LOC100653217 /// NTM (11731650_a_at) / Fold change /veh LOC100653217 /// NTM (11731650_a_at) / RFU MAPK11 (11762145_a_at) / Fold change /veh MAPK11 (11762145_a_at) / RFU FIZ1 (11724087_x_at) / Fold change /veh FIZ1 (11724087_x_at) / RFU OASL (11726364_x_at) / Fold change /veh OASL (11726364_x_at) / RFU SOX15 (11748057_x_at) / Fold change /veh SOX15 (11748057_x_at) / RFU CD79A (11719716_a_at) / Fold change /veh CD79A (11719716_a_at) / RFU HIST1H1D (11736915_at) / Fold change /veh HIST1H1D (11736915_at) / RFU CASKIN2 (11723855_a_at) / Fold change /veh CASKIN2 (11723855_a_at) / RFU LOC730098 (11760151_x_at) / Fold change /veh LOC730098 (11760151_x_at) / RFU OR4N2 (11742367_at) / Fold change /veh OR4N2 (11742367_at) / RFU PRRT2 (11749266_a_at) / Fold change /veh PRRT2 (11749266_a_at) / RFU SNX32 (11753110_a_at) / Fold change /veh SNX32 (11753110_a_at) / RFU CDHR5 (11726645_a_at) / Fold change /veh CDHR5 (11726645_a_at) / RFU RCAN1 (11760418_a_at) / Fold change /veh RCAN1 (11760418_a_at) / RFU FAM167A (11723789_a_at) / Fold change /veh FAM167A (11723789_a_at) / RFU FAM26E (11764081_at) / Fold change /veh FAM26E (11764081_at) / RFU ISYNA1 (11749810_s_at) / Fold change /veh ISYNA1 (11749810_s_at) / RFU ACY1 (11761880_at) / Fold change /veh ACY1 (11761880_at) / RFU 11764098_at / Fold change /veh 11764098_at / RFU SAMD14 (11745864_x_at) / Fold change /veh SAMD14 (11745864_x_at) / RFU NPB (11741838_a_at) / Fold change /veh NPB (11741838_a_at) / RFU TMPRSS6 (11731388_a_at) / Fold change /veh TMPRSS6 (11731388_a_at) / RFU KRTAP10-2 (11738614_at) / Fold change /veh KRTAP10-2 (11738614_at) / RFU ARHGAP8 /// PRR5-ARHGAP8 (11727945_x_at) / Fold change /veh ARHGAP8 /// PRR5-ARHGAP8 (11727945_x_at) / RFU KRTAP5-7 /// NADSYN1 (11734609_at) / Fold change /veh KRTAP5-7 /// NADSYN1 (11734609_at) / RFU RASL12 (11751679_a_at) / Fold change /veh RASL12 (11751679_a_at) / RFU CDKN2B (11736163_a_at) / Fold change /veh CDKN2B (11736163_a_at) / RFU PRF1 (11729649_at) / Fold change /veh PRF1 (11729649_at) / RFU, ZNF638 /// ZNF638-IT1 / Fold change vs veh, ZNF638 /// ZNF638-IT1 / RFU, PANK3 / Fold change vs veh, PANK3 / RFU, SH3YL1 / Fold change vs veh, SH3YL1 / RFU, ZEB2 / Fold change vs veh, ZEB2 / RFU, NRIP1 / Fold change vs veh, NRIP1 / RFU, PTTG1IP / Fold change vs veh, PTTG1IP / RFU, CAPN2 / Fold change vs veh, CAPN2 / RFU, MED14 / Fold change vs veh, MED14 / RFU, SNORA58 / Fold change vs veh, SNORA58 / RFU, C1orf63 / Fold change vs veh, C1orf63 / RFU, LRRFIP1 / Fold change vs veh, LRRFIP1 / RFU, NDUFAF7 / Fold change vs veh, NDUFAF7 / RFU, SLC12A2 / Fold change vs veh, SLC12A2 / RFU, IBTK / Fold change vs veh, IBTK / RFU, ESF1 / Fold change vs veh, ESF1 / Fold change vs veh, TMEM50B / RFU, TAOK1 / Fold change vs veh, TAOK1 / RFU, ACBD3 / Fold change vs veh, ACBD3 / RFU, TMA16 / Fold change vs veh, TMA16 / RFU, RWDD3 / Fold change vs veh, RWDD3 / RFU, BCAT1 / Fold change vs veh, BCAT1 / RFU, EDEM3 / Fold change vs veh, EDEM3 / RFU, TMEM33 / Fold change vs veh, TMEM33 / RFU, WDR75 / Fold change vs veh, WDR75 / RFU, AHCTF1 / Fold change vs veh, AHCTF1 / RFU, TFRC / Fold change vs veh, TFRC / RFU, ZDHHC17 / Fold change vs veh, ZDHHC17 / RFU, NOM1 / Fold change vs veh, NOM1 / RFU, ARL8B / Fold change vs veh, ARL8B / RFU, ZBTB11 / Fold change vs veh, ZBTB11 / RFU, TAMM41 / Fold change vs veh, TAMM41 / RFU, KIAA1704 /// LOC100996395 / Fold change vs veh, KIAA1704 /// LOC100996395 / RFU, ING1 / Fold change vs veh, ING1 / RFU, TRMT61B / Fold change vs veh, TRMT61B / RFU, FUBP3 / Fold change vs veh, FUBP3 / RFU, TP53 / Fold change vs veh, TP53 / RFU, TNKS2 / Fold change vs veh, TNKS2 / RFU, ZFP14 / Fold change vs veh, ZFP14 / RFU, ACTR2 / Fold change vs veh, ACTR2 / RFU, PPP3R1 / Fold change vs veh, PPP3R1 / RFU, PIK3R1 / Fold change vs veh, PIK3R1 / RFU, HNRNPA1 / Fold change vs veh, HNRNPA1 / RFU, RNF170 / Fold change vs veh, RNF170 / RFU, ZNF28 / Fold change vs veh, ZNF28 / RFU, RNGTT / Fold change vs veh, RNGTT / RFU, OGT / Fold change vs veh, OGT / RFU, BRD1 / Fold change vs veh, BRD1 / RFU, MARS / Fold change vs veh, MARS / RFU, ZNF655 / Fold change vs veh, ZNF655 / RFU, FAHD1 / Fold change vs veh, FAHD1 / RFU, BDP1 / Fold change vs veh, BDP1 / RFU, LRRCC1 / Fold change vs veh, LRRCC1 / RFU, ARID1A / Fold change vs veh, ARID1A / RFU, ZNF146 / Fold change vs veh, ZNF146 / RFU, ZNF330 / Fold change vs veh, ZNF330 / RFU, GPN3 / Fold change vs veh, GPN3 / RFU, C9orf123 / Fold change vs veh, C9orf123 / RFU, N4BP2L2 / Fold change vs veh, N4BP2L2 / RFU, ARFIP1 / Fold change vs veh, ARFIP1 / RFU, FAM179B / Fold change vs veh, FAM179B / RFU, BCL10 / Fold change vs veh, BCL10 / RFU, UHRF1BP1L / Fold change vs veh, UHRF1BP1L / RFU, BET1 / Fold change vs veh, BET1 / RFU, CNOT2 / Fold change vs veh, CNOT2 / RFU, ZNF268 / Fold change vs veh, ZNF268 / Fold change vs veh, ZNF507 / RFU, DGCR2 / Fold change vs veh, DGCR2 / RFU, WDSUB1 / Fold change vs veh, WDSUB1 / Fold change vs veh, HSP90B1 /// MIR3652 / RFU, ADSS / Fold change vs veh, ADSS / RFU, GK / Fold change vs veh, GK / RFU, ZNF148 / Fold change vs veh, ZNF148 / RFU, TAF9 / Fold change vs veh, TAF9 / RFU, SLC1A5 / Fold change vs veh, SLC1A5 / RFU, SLMO2 / Fold change vs veh, SLMO2 / RFU, ABCC4 / Fold change vs veh, ABCC4 / RFU, LOC101060439 /// RAP1B / Fold change vs veh, LOC101060439 /// RAP1B / RFU, RFX7 / Fold change vs veh, RFX7 / RFU, GTPBP10 / Fold change vs veh, GTPBP10 / RFU, CNEP1R1 / Fold change vs veh, CNEP1R1 / RFU, BIVM-ERCC5 /// ERCC5 / Fold change vs veh, BIVM-ERCC5 /// ERCC5 / RFU, ILF3 / Fold change vs veh, ILF3 / RFU 11762660_at / Fold change /veh 11762660_at / RFU VCAN (11757783_s_at) / Fold change /veh VCAN (11757783_s_at) / RFU DDX43 (11728927_at) / Fold change /veh DDX43 (11728927_at) / RFU KRT8 (11758188_x_at) / Fold change /veh KRT8 (11758188_x_at) / RFU NKD1 (11759106_at) / Fold change /veh NKD1 (11759106_at) / RFU SRD5A1 (11742802_a_at) / Fold change /veh SRD5A1 (11742802_a_at) / RFU TPSAB1 /// TPSB2 (11721975_s_at) / Fold change /veh TPSAB1 /// TPSB2 (11721975_s_at) / RFU GSTM3 (11746129_a_at) / Fold change /veh GSTM3 (11746129_a_at) / RFU IL23R (11737362_x_at) / Fold change /veh IL23R (11737362_x_at) / RFU TMEM51 (11727254_a_at) / Fold change /veh TMEM51 (11727254_a_at) / RFU PIWIL2 (11732686_x_at) / Fold change /veh PIWIL2 (11732686_x_at) / RFU ORM1 (11744905_x_at) / Fold change /veh ORM1 (11744905_x_at) / RFU CCDC152 (11743942_at) / Fold change /veh CCDC152 (11743942_at) / RFU ECM1 (11717891_a_at) / Fold change /veh ECM1 (11717891_a_at) / RFU IL23R (11748794_a_at) / Fold change /veh IL23R (11748794_a_at) / RFU TNFAIP8L3 (11732012_x_at) / Fold change /veh TNFAIP8L3 (11732012_x_at) / RFU MBOAT4 (11741988_at) / Fold change /veh MBOAT4 (11741988_at) / RFU 11764193_at / Fold change /veh 11764193_at / RFU TMEM53 (11763286_at) / Fold change /veh TMEM53 (11763286_at) / RFU MAGEB2 (11727129_at) / Fold change /veh MAGEB2 (11727129_at) / RFU TMEM200A (11744735_a_at) / Fold change /veh TMEM200A (11744735_a_at) / RFU CCDC152 (11751479_a_at) / Fold change /veh CCDC152 (11751479_a_at) / RFU FAM211A (11726209_a_at) / Fold change /veh FAM211A (11726209_a_at) / RFU RGS16 (11746705_a_at) / Fold change /veh RGS16 (11746705_a_at) / RFU VCAN (11755009_s_at) / Fold change /veh VCAN (11755009_s_at) / RFU RHOB (11743442_s_at) / Fold change /veh RHOB (11743442_s_at) / RFU RGS16 (11720943_a_at) / Fold change /veh RGS16 (11720943_a_at) / RFU RGS16 (11720944_at) / Fold change /veh RGS16 (11720944_at) / RFU, VPS4B / Fold change vs veh, VPS4B / RFU, CREB1 / Fold change vs veh, CREB1 / RFU, DNAJC13 / Fold change vs veh, DNAJC13 / RFU, GNAQ / Fold change vs veh, GNAQ / RFU, CDK5R1 / Fold change vs veh, CDK5R1 / RFU, ZRANB3 / Fold change vs veh, ZRANB3 / RFU, CUL4A / Fold change vs veh, CUL4A / RFU, CCNY / Fold change vs veh, CCNY / RFU, UFL1 / Fold change vs veh, UFL1 / RFU, COG3 / Fold change vs veh, COG3 / RFU, DIAPH2 / Fold change vs veh, DIAPH2 / RFU, SKA2 / Fold change vs veh, SKA2 / RFU, AFF3 / Fold change vs veh, AFF3 / RFU, LMF1 / Fold change vs veh, LMF1 / RFU, IPO11 / Fold change vs veh, IPO11 / RFU, DFFB / Fold change vs veh, DFFB / RFU, FOXP1 / Fold change vs veh, FOXP1 / RFU, CARD8 / Fold change vs veh, CARD8 / RFU, STRN3 / Fold change vs veh, STRN3 / RFU, ADK / Fold change vs veh, ADK / RFU, RASSF2 / Fold change vs veh, RASSF2 / RFU, WIPF1 / Fold change vs veh, WIPF1 / RFU, LARP1B / Fold change vs veh, LARP1B / RFU, RASA1 / Fold change vs veh, RASA1 / RFU, RB1 / Fold change vs veh, RB1 / RFU, PPFIA1 / Fold change vs veh, PPFIA1 / RFU, MAT2A / Fold change vs veh, MAT2A / RFU, CCT5 / Fold change vs veh, CCT5 / RFU, WDR92 / Fold change vs veh, WDR92 / RFU, CUX1 / Fold change vs veh, CUX1 / RFU, TTC7A / Fold change vs veh, TTC7A / RFU, TMEM135 / Fold change vs veh, TMEM135 / RFU, DEPTOR / Fold change vs veh, DEPTOR / RFU, CPM / Fold change vs veh, CPM / RFU, DNAJB6 / Fold change vs veh, DNAJB6 / RFU, CACNA2D3 / Fold change vs veh, CACNA2D3 / RFU, DTX4 / Fold change vs veh, DTX4 / RFU, TFCP2 / Fold change vs veh, TFCP2 / RFU, GMCL1 /// GMCL1P1 / Fold change vs veh, GMCL1 /// GMCL1P1 / RFU, AEBP2 / Fold change vs veh, AEBP2 / RFU, SNHG1 /// SNORD22 /// SNORD25 /// SNORD26 /// SNORD27 /// SNORD28 /// SNORD29 /// SNORD31 / Fold change vs veh, SNHG1 /// SNORD22 /// SNORD25 /// SNORD26 /// SNORD27 /// SNORD28 /// SNORD29 /// SNORD31 / Fold change (Aza/veh), C12orf56 (ProbeSet 11735607_a_at) / Fold change (ACY-1035/veh), C12orf56 (ProbeSet 11735607_a_at) / Fold change (Aza/veh), FGFR1OP (ProbeSet 11751329_s_at) / Fold change (ACY-1035/veh), FGFR1OP (ProbeSet 11751329_s_at) / Fold change (Aza/veh), VPS36 (ProbeSet 11739960_a_at) / Fold change (ACY-1035/veh), VPS36 (ProbeSet 11739960_a_at) / RFU SYPL1 (11715823_x_at) / Fold change /veh SYPL1 (11715823_x_at) / RFU IGFBP7 (11715501_s_at) / Fold change /veh IGFBP7 (11715501_s_at) / RFU REEP3 (11722064_at) / Fold change /veh REEP3 (11722064_at) / RFU IGLL1 (11728026_x_at) / Fold change /veh IGLL1 (11728026_x_at): dose or concentration left out as unconfirmed
Settings: ProbeSet 11720269_a_at; LIST B

With `Nc1ccc(-c2cccs2)cc1NC(=O)c1ccc2c(c1)cc(C1CC1)n2CCN1CCOCC1` [ACY-1035] the “RFU, IBTK” value was 758.00 RFU.
